Results: article PMC5607274, “An iterative compound screening contest method for identifying target protein inhibitors using the tyrosine-protein kinase Yes” (Scientific Reports, 2017)

target: T1, human recombinant Yes [a.a. 2–543 (end)] (Homo sapiens, UniProt P07947); assay: ADP-Glo kinase assay, inhibition rates of Yes phosphorylation activity (first and second screening); type: biochemical; settings: first screening; mean of n = 4 wells; 10 μmol L−1 compound
T1 construct: human recombinant Yes [a.a; 2–543 (end)]; purchased BPS Bioscience 40488
Experimental: All inhibitory assays of the phosphorylation activity of Yes were performed in accordance with the Promega Technical Manual for the ADP-Glo™ Kinase Assay (Fitchburg, WI, USA. Catalog number: V9102). The human recombinant Yes [a.a. 2–543 (end)] was purchased from BPS Bioscience (catalog number: 40488). The details of the assay protocol and reagent information are given elsewhere.
The screening was conducted in three steps consisting of the first screening, the second screening, and the IC50 determination, as can be illustrated in Fig. 1b. First, we determined the inhibition rates of the 1,991 compounds. Each compound was placed in 4 wells of a 384-well plate. In total, 80 compounds were assayed on one plate and the other wells were used for positive and negative controls. The compounds were randomly placed on plates so that compounds proposed by one group were not placed on a plate together. A mean of four inhibition rates for each compound was compared to criteria for the first screening. […] Second, the inhibition rates of the screened compounds were determined on one plate using the same procedure of the first screening, where compounds were dissolved from fresh powder. […] Screened compounds were then evaluated for their IC50 values.

T1 sequence (P07947 2-543): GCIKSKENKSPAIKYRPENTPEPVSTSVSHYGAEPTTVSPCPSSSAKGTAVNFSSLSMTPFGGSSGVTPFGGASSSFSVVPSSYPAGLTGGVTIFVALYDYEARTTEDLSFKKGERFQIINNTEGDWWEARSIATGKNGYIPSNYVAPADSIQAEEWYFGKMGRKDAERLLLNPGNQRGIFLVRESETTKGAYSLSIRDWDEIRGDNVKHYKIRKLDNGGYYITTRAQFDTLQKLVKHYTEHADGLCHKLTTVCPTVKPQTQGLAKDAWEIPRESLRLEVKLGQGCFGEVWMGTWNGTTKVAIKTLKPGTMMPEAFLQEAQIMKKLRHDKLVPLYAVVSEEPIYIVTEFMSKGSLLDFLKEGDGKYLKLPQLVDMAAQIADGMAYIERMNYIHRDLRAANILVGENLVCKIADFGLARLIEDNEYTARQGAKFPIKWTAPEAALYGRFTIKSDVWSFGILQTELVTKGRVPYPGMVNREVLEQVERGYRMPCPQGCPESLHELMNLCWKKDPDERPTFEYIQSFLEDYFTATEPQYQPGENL

Row | First screening IR (inhibition rate) [%] | Structure (SMILES)
1 | 51 | CCCn1c(NC(=O)c2ccc3c(c2)NC(=O)C(C)S3)nc2ccccc21 (stereo not shown) [Compound Z29076459]
2 | 16 | N#Cc1ccsc1NC(=O)CCCSc1nc2ccccc2[nH]1 [Compound Z29082077]
3 | -12 | CCN(CC)CCn1c(NC(=O)c2cc3c(C)nn(-c4ccc(Cl)cc4)c3s2)nc2ccccc21 [Compound Z29249972]
4 | 2 | CCN(c1ccccc1)S(=O)(=O)c1ccc(C(=O)Nc2ccc(S(=O)(=O)N(C)C)cc2)cc1 [Compound Z29267150]
5 | 9 | Cc1cnc(NC(=O)CCCc2nc3ccccc3c(=O)[nH]2)s1 [Compound Z29324663]
6 | 0 | Cc1nn(CC(C)C)c2sc(C(=O)Nc3nc(-c4ccccn4)cs3)cc12 [Compound Z29467100]
7 | 7 | CC(C)(C)C1CCC(C(=O)Nc2nc(-c3ccccn3)cs2)CC1 (stereo not shown) [Compound Z29467784]
8 | 18 | COc1cccc2cc(C(=O)N3CCN(S(=O)(=O)c4ccccc4C(F)(F)F)CC3)c(=O)oc12 [Compound Z29531247]
9 | 5 | CN(c1ccc(OC(=O)C23CC4CC(CC(Cl)(C4)C2)C3)cc1)S(=O)(=O)c1ccccc1F [Compound Z29631119]
10 | 1 | CC(=O)NC12CC3CC(C1)CC(C(=O)Oc1ccc(N(C)S(=O)(=O)c4cc(C)ccc4C)cc1)(C3)C2 [Compound Z29631809]
11 | 10 | O=C(/C=C/c1cn(-c2ccccc2)nc1-c1cccnc1)N1CC=C(c2ccccc2)CC1 [Compound Z29699890]
12 | 11 | Cc1cc(F)ccc1NC(=O)C(C)Oc1cccc(Cl)c1 (stereo not shown) [Compound Z29827650]
13 | 6 | O=C(NCc1cccc(C(F)(F)F)c1)c1n[nH]c(=O)c2ccccc12 [Compound Z29859952]
14 | -3 | Cc1cc(NC(=O)C(C)SCC(=O)Nc2cccc3ncccc23)no1 (stereo not shown) [Compound Z29903633]
15 | -1 | CCOC(=O)c1sc(-c2cccc([N+](=O)[O-])c2)cc1NC(=O)CCc1ccccc1 [Compound Z29956667]
16 | 1 | Cc1nn(-c2ccccc2)c2sc(C(=O)NCc3ccccn3)cc12 [Compound Z30166588]
17 | 41 | O=C(NCCCn1ccnc1)C1CCN(C(=O)c2ccc(F)cc2)CC1 [Compound Z30216742]
18 | 20 | CCCOc1c(Br)cc(C(=O)Nc2cccc(S(=O)(=O)N(CC)CC)c2)cc1OC [Compound Z30220173]
19 | 17 | O=C(CCCSc1nc2ccccc2[nH]1)Nc1ccc(-c2nc3ccccc3[nH]2)cc1 [Compound Z30270226]
20 | 7 | O=C(NCCSc1ccc(Br)cc1)c1ccc2nc[nH]c2c1 [Compound Z30463043]
21 | 14 | O=C(Nc1cccc(C(F)(F)F)c1)c1cccc(NC(=O)c2cnccn2)c1 [Compound Z30576843]
22 | -9 | COc1ccc(-c2cc(C(=O)OCc3ccccn3)c3ccccc3n2)cc1OC [Compound Z30610492]

Row | First screening IR (inhibition rate) [%] | Structure (SMILES)
23 | 4 | NC(=O)NCc1ccc(C(=O)N2CCN(c3ncc(C(F)(F)F)cc3Cl)CC2)cc1 [Compound Z30640594]
24 | 20 | C=CCN1C(=O)c2ccc(C(=O)Nc3cc(C)cc(C)c3)cc2C1=O [Compound Z30888972]
25 | -3 | CC(=O)c1ccc(-c2ccc(C(=O)Nc3cc(F)ccc3C)o2)cc1 [Compound Z30903878]
26 | 12 | CCOC(=O)c1c(NC(=O)CN2CCN(c3cccc(Cl)c3)CC2)sc(Cc2ccc3c(c2)OCO3)c1C [Compound Z30983122]
27 | -13 | Cc1sc2nc(CN3CCOCC3)nc(Oc3ccc(NC(=O)c4ccc(C(C)(C)C)cc4)cc3)c2c1C [Compound Z31089732]
28 | 0 | CN(C)c1ccc(C(CNc2ncccc2C#N)c2c[nH]c3ccccc23)cc1 (stereo not shown) [Compound Z31123519]
29 | 9 | Cc1sc2nc(CSc3ccccc3)nc(N3CCCC3C(N)=O)c2c1C (stereo not shown) [Compound Z31132453]
30 | 45 | Cc1sc2nc(CN3CCCC3)nc(N(C)CC(=O)Nc3ccc(N4CCOCC4)cc3)c2c1C [Compound Z31148700]
31 | -14 | CCCN1CCN(c2ccc(S(=O)(=O)NC3CCC(C)CC3)cc2[N+](=O)[O-])CC1 (stereo not shown) [Compound Z31152357]
32 | 7 | COc1ccc(Cl)cc1NC(=O)CN(C)c1nc(CN2CCOCC2)nc2sc3c(c12)CCC(C)C3 (stereo not shown) [Compound Z31158506]
33 | 6 | CCN(CC)S(=O)(=O)c1ccc(N2CCN(S(=O)(=O)c3ccccc3C#N)CC2)nc1 [Compound Z31169752]
34 | 14 | Cc1sc2ncnc(Nc3ccc4c(c3)OCO4)c2c1C [Compound Z31191207]
35 | 8 | CN(Cc1ccccc1)c1nc(CN2CCOCC2)nc2sc3c(c12)CCC3 [Compound Z31196583]
36 | 13 | Cc1sc2nc(-c3cccnc3)nc(N3CCOCC3)c2c1-c1ccccc1 [Compound Z31211547]
37 | -3 | Cc1sc2nc(-c3cccnc3)nc(NC3CC3)c2c1C [Compound Z31232965]
38 | 19 | CCN(CCO)c1nc(-c2ccccn2)nc2scc(-c3ccccc3)c12 [Compound Z31238841]
39 | 4 | CC1CCc2c(sc3nc(-c4cccnc4)nc(N4CCCCCCC4)c23)C1 (stereo not shown) [Compound Z31262492]
40 | -12 | CCOC(=O)c1ccc(-n2c(O)c(C=NCc3ccccn3)c3ccccc3c2=O)cc1 [Compound Z31275874]
41 | -6 | CCOc1ccc(-n2c(O)c(C=NCCCN3CCOCC3)c3ccccc3c2=O)cc1 [Compound Z31276645]
42 | 8 | CCN(CC)S(=O)(=O)c1ccc(NC(=O)CNC(=O)C23CC4CC(CC(C4)C2)C3)cc1 [Compound Z31827545]
43 | -2 | O=C(Cc1cccc(F)c1)NNC(=O)Cn1c(COc2ccc(Cl)cc2)nc2ccccc21 [Compound Z31930719]
44 | 8 | CC(C)(CNC(=O)c1cccc(N2CC(O)=C(c3nc4ccccc4s3)C2=N)c1)N1CCOCC1 [Compound Z32220177]

Row | First screening IR (inhibition rate) [%] | Structure (SMILES)
45 | 30 | O=C(CCC(=O)N1CCC(c2ccccc2)=N1)NCc1cccc(Cl)c1 [Compound Z32361141]
46 | 4 | O=C(CCc1c[nH]c2ccccc12)Nc1ccc(F)c([N+](=O)[O-])c1 [Compound Z32407809]
47 | 21 | Cc1cc(C(=O)CCC(=O)NCCc2c[nH]c3ccccc23)c(C)s1 [Compound Z32439393]
48 | -5 | O=C(Nc1ccc(N2CCCCC2)c(S(=O)(=O)Nc2ccc(Cl)cc2)c1)c1ccc(S(=O)(=O)NCc2ccco2)cc1 [Compound Z32729001]
49 | 11 | Cc1cc(F)ccc1S(=O)(=O)Nc1ccc(C(=O)Nc2cccc(CO)c2)cc1 [Compound Z32804094]
50 | 3 | Cc1noc(C)c1COc1ccc(C(=O)NCCCn2ccc3ccccc32)cc1 [Compound Z32811942]
51 | 4 | Cc1nc2ccc(NC(=O)CNC(=O)c3ccccc3F)cc2s1 [Compound Z33270206]
52 | 10 | COc1ccc(OC)c(-n2c(-c3ccc(C)cc3)nn(CN3CCN(c4ccc(O)cc4)CC3)c2=S)c1 [Compound Z44104256]
53 | 31 | COc1ccc(OC)c(-n2c(-c3ccc(C)cc3)nn(CN3CCN(c4cccc(Cl)c4)CC3)c2=S)c1 [Compound Z44116384]
54 | 1 | COc1ccc2cc(C3(C)NC(=O)N(CN4CCN(C/C=C/c5ccccc5)CC4)C3=O)ccc2c1 (stereo not shown) [Compound Z44124119]
55 | 18 | CC1CC(C)(C)CC2(C1)NC(=O)N(CN1CCN(c3ccc(C(F)(F)F)cn3)CC1)C2=O (stereo not shown) [Compound Z44255985]
56 | 6 | CCCCOc1ccc(/C=C2/C(=O)Nc3ccc(Cl)cc32)cc1 [Compound Z44304381]
57 | 9 | CCCOc1cc(/C=C2/C(=O)Nc3ccc(Cl)cc32)ccc1OC [Compound Z44304730]
58 | 4 | COc1cc(/C=C2/C(=O)Nc3ccc(Cl)cc32)cc(Cl)c1OC(F)F [Compound Z44304760]
59 | 23 | CCOc1ccc(O)c(/C=C2\C(=O)Nc3ccc(Cl)cc32)c1 [Compound Z44304769]
60 | 13 | Cc1nc(/C=C2/C(=O)Nc3ccc(Cl)cc32)cs1 [Compound Z44304809]
61 | 25 | O=C1Nc2ccccc2/C1=C\c1ccc(O)cc1 [Compound Z44305789]
62 | -16 | COc1cc(/C=C(\C#N)C(=O)NC2CCCCC2)ccc1OCC(=O)Nc1ccc(Br)cc1 [Compound Z44319326]
63 | 4 | CC(Nc1ccc2c(c1)OCCO2)C(=O)Nc1ccc(F)c(F)c1F (stereo not shown) [Compound Z44489053]
64 | 5 | Cc1ccccc1Nc1nc(N)nc(CN(C)Cc2ccc(C(C)(C)C)cc2)n1 [Compound Z44561353]
